From ChEMBL document CHEMBL5614443, “Hybrids of 3-Hydroxypyridin-4(1H)-ones and Long-Chain 4-Aminoquinolines as Potent Biofilm Inhibitors of Pseudomonas aeruginosa Potentiate Tobramycin and Polymyxin B Activity” (J Med Chem, 2024)
Calls of active or inactive are those of the source. The rule behind the calls is not given here.

How the values were obtained:
[1] = tested on: Pseudomonas aeruginosa; assay: Antibacterial activity against Pseudomonas aeruginosa PAO1 assessed as inhibition of bacterial growth incubated for 24 hrs by CLSI protocol based method; format: functional
[2] = tested on: Pseudomonas aeruginosa; assay: Antibacterial activity against Pseudomonas aeruginosa PAO1 assessed as inhibition of bacterial growth at 0.1 to 50 uM measured upto 24 hrs by CLSI protocol based method; format: functional, organism-based; conditions: dose 0.1-50 µM
[3] = Inhibition of quorum sensing system in wildtype Pseudomonas aeruginosa PAO1 assessed as inhibition of elastase production incubated for 24 hrs by elastin-congo red dye based absorbance assay
[4] = Inhibition of quorum sensing system in wildtype Pseudomonas aeruginosa PAO1 assessed as inhibition of rhamnolipid production incubated for 24 hrs by absorbance based microtiter plate reader analysis
[5] = tested on: Pseudomonas aeruginosa; assay: Inhibition of motility in Pseudomonas aeruginosa PAO1 assessed as reduction in swarming movements incubated for 16 hrs by motility assay; format: functional, organism-based; conditions: dose 1.25-50 µM
[6] = tested on: Pseudomonas aeruginosa; assay: Antibacterial activity against Pseudomonas aeruginosa clinical isolate 1121 assessed as inhibition of bacterial growth incubated for 24 hrs by CLSI protocol based method; format: functional, organism-based
[7] = tested on: Pseudomonas aeruginosa; assay: Antivirulence activity in Pseudomonas aeruginosa clinical isolate 0815 assessed as reduction in elastase production at 10 uM incubated for 24 hrs by elastin-congo red dye based absorbance assay; format: functional, organism-based
[8] = tested on: Pseudomonas aeruginosa; assay: Antivirulence activity in Pseudomonas aeruginosa clinical isolate 0815 assessed as reduction in rhamnolipid production at 10 uM incubated for 24 hrs by absorbance based microtiter plate reader analysis; format: functional, organism-based
[9] = tested on: Pseudomonas aeruginosa; assay: Antibiofilm activity against Pseudomonas aeruginosa clinical isolate 0815 assessed as reduction in biofilm content at 10 uM incubated for 24 hrs by crystal violet staining based analysis; format: functional, organism-based
[10] = tested on: Pseudomonas aeruginosa; assay: Antibiofilm activity against Pseudomonas aeruginosa clinical isolate 1121 assessed as reduction in biofilm content at 10 uM incubated for 24 hrs by crystal violet staining based analysis; format: functional, organism-based
[11] = tested on: Pseudomonas aeruginosa; assay: Synergistic antibacterial activity against Pseudomonas aeruginosa PAO1 assessed as reduction in cell viability at 10 to 50 uM incubated for 24 hrs in the presence of 1/8 MIC of tobramycin by LB agar plate method; format: functional, organism-based; conditions: dose 10-50 µM
[12] = tested on: Pseudomonas aeruginosa; assay: Synergistic antibacterial activity against Pseudomonas aeruginosa PAO1 assessed as reduction in cell viability at 10 to 50 uM incubated for 24 hrs in the presence of 1/2 MIC of polymyxin B by LB agar plate method; format: functional, organism-based; conditions: dose 10-50 µM
[13] = tested on: Pseudomonas aeruginosa; assay: Synergistic antibacterial activity against Pseudomonas aeruginosa PAO1 assessed as reduction in cell viability at 10 to 50 uM incubated for 24 hrs in the presence of 1/8 MIC of polymyxin B by LB agar plate method; format: functional, organism-based; conditions: dose 10-50 µM
[14] = tested on: Pseudomonas aeruginosa; assay: Synergistic antibacterial activity against Pseudomonas aeruginosa PAO1 assessed as fold reduction in bacterial survival rate incubated for 24 hrs in presence of meropenem by LB agar plate method; format: functional
[15] = tested on: Pseudomonas aeruginosa; assay: Synergistic antibacterial activity against Pseudomonas aeruginosa clinical isolate 0815 assessed as reduction in bacterial viability at 10 to 50 uM incubated for 24 hrs in presence of 1/8 MIC of tobramycin by LB agar plate method; format: functional, organism-based; conditions: dose 10-50 µM
[16] = tested on: Pseudomonas aeruginosa; assay: Synergistic antibacterial activity against Pseudomonas aeruginosa clinical isolate 1167 assessed as reduction in bacterial viability at 10 to 50 uM incubated for 24 hrs in presence of 1/4 MIC of tobramycin by LB agar plate method; format: functional, organism-based; conditions: dose 10-50 µM
[17] = tested on: Pseudomonas aeruginosa; assay: Synergistic antibacterial activity against Pseudomonas aeruginosa clinical isolate 1121 assessed as reduction in bacterial viability at 10 to 50 uM incubated for 24 hrs in presence of 1/2 MIC of tobramycin by LB agar plate method; format: functional, organism-based; conditions: dose 10-50 µM
[18] = tested on: Pseudomonas aeruginosa; assay: Synergistic antibacterial activity against Pseudomonas aeruginosa clinical isolate 0815 assessed as reduction in bacterial viability at 10 to 50 uM incubated for 24 hrs in presence of 1/8 MIC of polymyxin B by LB agar plate method; format: functional, organism-based; conditions: dose 10-50 µM
[19] = tested on: Pseudomonas aeruginosa; assay: Synergistic antibacterial activity against Pseudomonas aeruginosa clinical isolate 1121 assessed as reduction in bacterial viability at 10 to 50 uM incubated for 24 hrs in presence of 1/2 MIC of polymyxin B by LB agar plate method; format: functional, organism-based; conditions: dose 10-50 µM
[20] = tested on: Pseudomonas aeruginosa; assay: Synergistic antibacterial activity against Pseudomonas aeruginosa clinical isolate 1121 assessed as fold reduction in bacterial viability at 50 uM incubated for 24 hrs in presence of 1/2 MIC of polymyxin B by LB agar plate method relative to polymyxin B alone; format: functional
[21] = tested on: Pseudomonas aeruginosa; assay: Synergistic antibacterial activity against Pseudomonas aeruginosa clinical isolate 1121 assessed as fold reduction in bacterial viability at 50 uM incubated for 24 hrs in presence of 1/2 MIC of tobramycin by LB agar plate method relative to tobramycin alone; format: functional
[22] = tested on: Pseudomonas aeruginosa; assay: Antibacterial activity against Pseudomonas aeruginosa PAO1 infected in Caenorhabditis elegans assessed as worm survival rate at 50 uM measured after 96 hrs in presence of polymyxin B at 1/2 MIC by bright field microscopic analysis relative to control; format: functional
[23] = tested on: Pseudomonas aeruginosa; assay: Induction of Fe3+ chelating activity in Pseudomonas aeruginosa PAO1 assessed as increase in pyochelin production by measuring fold change at 50 uM incubated for 24 hrs by fluorescence microplate reader

Cc1cc(=O)c(O)c(C(=O)NCCCCCCCCNc2ccnc3cc(Cl)ccc23)n1C.Cl
MIC [1]: ≥ 512 µM
Activity [2]: inactive
IC50 [3]: 16.7 µM
IC50 [4]: 39.2 µM
inhibition [5]: Dose-Dependent Effect
Activity [6]: inactive
Activity [7]: Active
Activity [8]: Active
Activity [9]: Active
Activity [10]: Active
Activity [11]: Active
Activity [12]: Active
Activity [13]: Active
fold change (FC) [14]: <10
Activity [15]: Active
Activity [16]: Active
Activity [17]: Active
Activity [18]: Active
Activity [19]: Active
fold change (FC) [20]: 15
fold change (FC) [21]: 15
survival at 50 µM [22]: 91.2%
fold change (FC) [23]: 2
